# Tested on: cardiac gene expression
# Assay: Microarray analysis of cardiac gene expression (GeneChip Mouse Genome 430 2.0)
# Type: in vivo, mice
# Description: Microarray Sample Preparation and Analysis. Animal hearts were rapidly removed, and the atria and right ventricles were cut and immediately plunged into TRIzol Reagent (Life Technologies). Total RNA was isolated following the manufacturer's instructions, purified by phenol-chloroform extraction and then ethanol precipitation, and 20 μg further processed for microarray analysis. Briefly, cDNA synthesis, in vitro transcription, and labeling and fragmentation to produce the oligonucleotide probes were performed as instructed by the GeneChip manufacturer (Affymetrix). The probes were first hybridized to a test array (Affymetrix) and then to the GeneChip Mouse Genome 430 2.0 Array, using the GeneChip Hybridization Oven 640. The chips were washed in a GeneChip Fluidics Station 450 (Affymetrix), and the results were visualized with a GeneChip G7 scanner (Affymetrix). RMA normalization, pairwise comparisons, Student's t test and Benjamini and Hochberg correction were subsequently performed using GeneSifter (VizX Labs, Seattle, Wash.) and Spotfire DecisionSite 8.3 (Spotfire, Inc., Somerville, Mass.).
# Effects on Gene Expression Profile. […] One mouse heart was used for each array, and was performed in triplicate, generating a total of 12 arrays. GeneSifter was used to perform RMA normalization, pairwise comparisons of averaged signal intensity values, and Student's t-test with Benjamini and Hochberg correction, and Spotfire was used to perform pairwise comparisons. […] Additionally, genes that were altered between any two N or cardiac hypertrophy samples were removed, as these alterations most likely represented normal variations between mice.
smiles,measurement,setting,value
C[C@H]1c2cccc(O)c2C(=O)C2=C(O)[C@]3(O)C(=O)C(C(N)=O)=C(O)[C@@H](N(C)C)[C@@H]3[C@@H](O)[C@@H]21 [doxycycline],FC Tubulointerstitial nephritis antigen-like (Tinagl),"GenBank BC005738, heart, drug + isoproterenol vs isoproterenol-only mice, CH vs normal FC 2.1",−1.8 fold
same,FC Tubulin alpha (Tuba2),"GenBank BC008117, heart, drug + isoproterenol vs isoproterenol-only mice, CH vs normal FC −2.7",4.1 fold
same,FC Intercellular adhesion molecule (Icam1),"GenBank BC008626, vs mice given only isoproterenol",−2.7
same,FC Similar to serine protease inhibitor-2 related sequee 1 (Serpina3m),"GenBank BC011158, vs mice given only isoproterenol",−2.4
same,FC Phosphatidylinositol binding clathrin assembly protein (Picalm),"GenBank BC011470, vs mice given only isoproterenol",−1.5
same,FC Isochorismatase domain containing 1 (Isoc1),"GenBank BC016576, vs mice given only isoproterenol",2.8
same,"FC EGF, latrophilin seven transmembrane domain containing 1 (Eltd1)","GenBank BC017134, vs mice given only isoproterenol",−2.0
same,"FC Ras homolog gene family, member B (RhoB)","GenBank BC018275, vs mice given only isoproterenol",−2.1
same,FC D site albumin promoter binding protein (Dbp),"GenBank BC018323, vs mice given only isoproterenol",10.2
same,FC RAD52 homolog (S. cerevisiae) (Rad52),"GenBank BC019123, vs mice given only isoproterenol",−1.8
same,FC Leucine-rich repeat-containing 3b (Lrrc3b),"GenBank BC019794, vs mice given only isoproterenol",1.9
same,"FC Solute carrier family 45, member 3 (Slc45a3)","GenBank BC024519, vs mice given only isoproterenol",−1.8
same,FC Rho GTPase activating protein 24 (Arhgap24),"GenBank BC025502, vs mice given only isoproterenol",−1.8
same,FC Motile sperm domain containing 2 (Mospd),"GenBank BC026425, vs mice given only isoproterenol",−1.7
same,FC Similar to metallothionein 1 (Mt1),"GenBank BC027262, vs mice given only isoproterenol",−2.7
same,FC Guanine deaminase (Gda),"GenBank BE136057, vs mice given only isoproterenol",−1.7
same,FC EST,"GenBank BE553782, vs mice given only isoproterenol",−1.6
same,FC EST,"GenBank BE630303, vs mice given only isoproterenol",−1.8
same,FC ESTs,"GenBank BE630363, vs mice given only isoproterenol",−3.1
same,FC ESTs,"GenBank BE685667, vs mice given only isoproterenol",−3.2
same,FC EST,"GenBank BE687858, vs mice given only isoproterenol",−1.5
same,FC EST,"GenBank BE852759, vs mice given only isoproterenol",1.7
same,FC Retinoblastoma binding protein 4 (Rbbp4),"GenBank BF011461, vs mice given only isoproterenol",2.1
same,FC Methyl-CpG binding domain protein 1 (Mbd1),"GenBank BF121558, vs mice given only isoproterenol",−1.8
same,FC SET translocation (Set),"GenBank BF134272, vs mice given only isoproterenol",2.0
same,FC Protein tyrosine phosphatase 4a1 (Ptp4a1),"GenBank BF179910, vs mice given only isoproterenol",−1.9
same,"FC Potassium channel, subfamily K, member 3 (Kcnk3)","GenBank BF467278, vs mice given only isoproterenol",3.9
same,FC Smoothelin (Smtn),"GenBank BF578669, vs mice given only isoproterenol",1.5
same,FC EST,"GenBank BF780807, vs mice given only isoproterenol",−1.9
same,FC ESTs,"GenBank BG067678, vs mice given only isoproterenol",2.6
same,FC EST,"GenBank BG068705, vs mice given only isoproterenol",−1.7
same,FC SET domain containing (lysine methyltransferase) 8)Setd8),"GenBank BG069700, vs mice given only isoproterenol",1.9
same,FC Neuronal PAS domain protein 2 (Npas2),"GenBank BG070037, vs mice given only isoproterenol",−2.6
same,"FC Pleckstrin homology domain containing, family G (with RhoGef domain) member 1 (Plekhg1)","GenBank BG073502, vs mice given only isoproterenol",−2.0
same,FC Microtubule-actin crosslinking factor 1 (Macf1),"GenBank BG074706, vs mice given only isoproterenol",2.7
same,FC Insulin-like growth factor 1 (Igf1),"GenBank BG075165, vs mice given only isoproterenol",2.3
same,FC p53 regulated PA26 nuclear protein (Sestrin 1) (Sesn1),"GenBank BG076140, 1st listing, vs mice given only isoproterenol",−2.9
same,FC p53 regulated PA26 nuclear protein (Sestrin 1) (Sesn1),"GenBank BG076140, 2nd listing, vs mice given only isoproterenol",−3.5
same,FC EST,"GenBank BG092512, vs mice given only isoproterenol",−2.9
same,"FC Transforming growth factor, beta receptor II (Tgfbr2)","GenBank BG793483, heart, drug + isoproterenol vs isoproterenol-only mice, CH vs normal FC 2.4",−2.3 fold
same,FC Restin-like 2 (Rsnl2),"GenBank BG916957, vs mice given only isoproterenol",1.9
same,FC mVL30-1 retroelement,"GenBank BI076714, vs mice given only isoproterenol",−2.1
same,FC Methylcrotonoyl-Coenzyme A carboxylase 2 (beta) (Mccc2),"GenBank BI155184, vs mice given only isoproterenol",1.7
same,"FC Transforming, acidic coiled-coil containing protein 2 (Tacc2)","GenBank BI466416, heart, drug + isoproterenol vs isoproterenol-only mice, CH vs normal FC 2.6",−2.5 fold
same,FC PHD finger protein 15 (Phf15),"GenBank BI663145, vs mice given only isoproterenol",−2.1
same,FC Tissue inhibitor of metalloproteinase 4 (Timp4),"GenBank BI788452, heart, drug + isoproterenol vs isoproterenol-only mice, CH vs normal FC 3.2",−3.1 fold
same,FC Zi finger and BTB domain containing 16 (Zbtb16),"GenBank BM115255, heart, drug + isoproterenol vs isoproterenol-only mice, CH vs normal FC 7.5",−1.6 fold
same,"FC GTL2, imprinted maternally expressed untranslated mRNA (Gtl2)","GenBank BM119226, vs mice given only isoproterenol",1.7
same,FC Ectodermal-neural cortex 1 (E1),"GenBank BM120053, 1st listing, vs mice given only isoproterenol",−2.0
same,FC Ectodermal-neural cortex 1 (E1),"GenBank BM120053, 2nd listing, vs mice given only isoproterenol",−1.9
same,FC Pellino 2(peli2),"GenBank BM121149, vs mice given only isoproterenol",−1.9
same,FC REST corepressor 1 (Rcor1),"GenBank BM194994, vs mice given only isoproterenol",3.3
same,FC EST,"GenBank BM219553, vs mice given only isoproterenol",−2.6
same,FC Phospholipase D1 (Pld1),"GenBank BM228590, 1st listing, vs mice given only isoproterenol",−2.0
same,FC Phospholipase D1 (Pld1),"GenBank BM228590, 2nd listing, vs mice given only isoproterenol",−1.6
same,FC SET translocation (Set),"GenBank BM229104, vs mice given only isoproterenol",2.0
same,FC p53 regulated PA26 nuclear protein (Sestrin 1) (Sesn1),"GenBank BM237933, vs mice given only isoproterenol",−2.4
same,FC Macrophage activation 2 (Mpa21),"GenBank BM241485, vs mice given only isoproterenol",−3.6
same,FC Prohibitin (Phb),"GenBank BM243379, vs mice given only isoproterenol",−2.1
same,FC Serine iorporator 3 (Seri3),"GenBank BM244064, vs mice given only isoproterenol",−1.8

# — patent US20080305186A1, “Method and Composition for the Treatment of Cardiac Hypertrophy” (BOARD OF REGENTS, THE UNIVERSITY OF TEXAS SYSTEM, priority 2007, published 2008)
